Results published in ChEMBL document CHEMBL4312010, “Synthesis and antibacterial evaluation of novel oxazolidinone derivatives containing a piperidinyl moiety” (Bioorg Med Chem Lett, 2019).
pIC50: −log10 of the molar value. Converted amounts (≈) assume the structure as drawn.

What was measured:
[1] = Metabolic stability in human liver microsomes assessed as parent compound remaining after 45 mins in presence of NADPH relative to control; format: ADME, Microsome; conditions: read-out: Stability
Enterococcus faecalis [2] = experiment: Antibacterial activity agianst linezolid-resistant Enterococcus faecalis clinical isolates; format: functional
Enterococcus faecalis [3] = experiment: Potency index, ratio of linezolid MIC to compound MIC for antibacterial activity against linezolid-resistant Enterococcus faecalis; format: functional
HepG2 = experiment: Cytotoxicity against human HepG2 cells assessed as reduction in cell viability; format: cell-based
Staphylococcus aureus [4] = experiment: Antibacterial activity agianst Staphylococcus aureus ATCC 29213; format: functional
Enterococcus faecium [5] = experiment: Antibacterial activity agianst vancomycin-resistant Enterococcus faecium; format: functional
Enterococcus faecium [6] = experiment: Antibacterial activity agianst vancomycin-resistant Enterococcus faecium clinical isolates; format: functional
Staphylococcus aureus [7] = experiment: Antibacterial activity agianst methicillin-sensitive Staphylococcus aureus; format: functional
[8] = Half life in human liver microsomes; format: ADME, Microsome
Enterococcus faecalis [9] = experiment: Potency index, ratio of linezolid MIC to compound MIC for antibacterial activity against linezolid-resistant Enterococcus faecalis clinical isolates; format: functional
Staphylococcus aureus [10] = experiment: Antibacterial activity agianst methicillin-resistant Staphylococcus aureus; format: functional
Enterococcus faecalis [11] = experiment: Antibacterial activity agianst linezolid-resistant Enterococcus faecalis; format: functional
Staphylococcus aureus [12] = experiment: Antibacterial activity agianst methicillin-sensitive Staphylococcus aureus clinical isolates; format: functional
[13] = Intrinsic clearance in human liver microsomes; format: ADME, Microsome; conditions: read-out: CLH
[14] = target: T1, MAO-A (amine oxidase [flavin-containing] A) (Homo sapiens, UniProt P21397); experiment: Inhibition of human MAO-A at 30 uM relative to control
T1 sequence (P21397 whole entry): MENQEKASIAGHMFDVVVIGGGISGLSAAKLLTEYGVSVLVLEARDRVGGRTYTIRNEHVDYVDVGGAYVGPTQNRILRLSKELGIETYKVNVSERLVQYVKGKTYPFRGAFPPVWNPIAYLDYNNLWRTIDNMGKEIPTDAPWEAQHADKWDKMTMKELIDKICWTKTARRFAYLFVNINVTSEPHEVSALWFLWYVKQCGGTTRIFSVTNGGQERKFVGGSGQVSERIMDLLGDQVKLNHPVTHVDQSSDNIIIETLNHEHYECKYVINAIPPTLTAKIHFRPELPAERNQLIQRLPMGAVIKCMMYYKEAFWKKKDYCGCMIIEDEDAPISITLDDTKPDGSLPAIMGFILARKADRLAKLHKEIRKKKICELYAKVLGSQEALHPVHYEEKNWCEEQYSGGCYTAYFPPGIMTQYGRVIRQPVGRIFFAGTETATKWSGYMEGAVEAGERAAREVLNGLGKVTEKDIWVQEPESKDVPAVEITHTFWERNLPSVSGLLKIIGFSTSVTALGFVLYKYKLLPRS

Staphylococcus aureus [15] = experiment: Antibacterial activity agianst methicillin-resistant Staphylococcus aureus clinical isolates; format: functional

| SMILES | remaining at 0.75 h [1] [%] | MIC (Enterococcus faecalis [2]) [µg/mL] | Ratio (Enterococcus faecalis [3]) | pIC50 (HepG2) | MIC (Staphylococcus aureus [4]) [µg/mL] | MIC (Enterococcus faecium [5]) [µg/mL] | MIC (Enterococcus faecium [6]) [µg/mL] | MIC (Staphylococcus aureus [7]) [µg/mL] | half-life [8] [h] | Ratio (Enterococcus faecalis [9]) | MIC (Staphylococcus aureus [10]) [µg/mL] | MIC (Enterococcus faecalis [11]) [µg/mL] | MIC (Staphylococcus aureus [12]) [µg/mL] | CLint scaled [13] [mL/min/kg] | inhibition at 30 µM [14] [%] | MIC (Staphylococcus aureus [15]) [µg/mL] |
| --- | --- | --- | --- | --- | --- | --- | --- | --- | --- | --- | --- | --- | --- | --- | --- | --- |
| CC(=O)NC[C@H]1CN(c2ccc(N3CCC(Nc4ccc(Br)cc4)CC3)c(F)c2)C(=O)O1 | 97 | 0.0625 to 0.25 (≈ 0.124 to 0.495 µM) | 64 | < 4.19 | 1 (≈ 1.98 µM) | 0.25 (≈ 0.495 µM) | 0.125 to 0.25 (≈ 0.247 to 0.495 µM) | 1 (≈ 1.98 µM) | 8.37 | 64 | 0.5 (≈ 0.989 µM) | 0.25 (≈ 0.495 µM) | 0.5 to 1 (≈ 0.989 to 1.98 µM) | 3.46 | 70 |  |
| CC(=O)NC[C@H]1CN(c2ccc(N3CCN(Cc4ccc([N+](=O)[O-])o4)CC3)c(F)c2)C(=O)O1 [RANBEZOLID] |  |  |  |  | 0.5 (≈ 1.08 µM) | 0.5 (≈ 1.08 µM) |  | 0.5 (≈ 1.08 µM) |  |  | 0.5 (≈ 1.08 µM) | 0.5 (≈ 1.08 µM) |  |  |  |  |
| CC(=O)NC[C@H]1CN(c2ccc(N3CCC(Nc4cccc(Br)c4)CC3)c(F)c2)C(=O)O1 |  |  |  |  | 2 (≈ 3.96 µM) | 2 (≈ 3.96 µM) |  | 2 (≈ 3.96 µM) |  |  | 2 (≈ 3.96 µM) | 2 (≈ 3.96 µM) |  |  |  |  |
| CC(=O)NC[C@H]1CN(c2ccc(N3CCC(Nc4cccc(OC(F)(F)F)c4)CC3)c(F)c2)C(=O)O1 |  |  |  |  | 2 (≈ 3.92 µM) | 2 (≈ 3.92 µM) |  | 2 (≈ 3.92 µM) |  |  | 2 (≈ 3.92 µM) | 2 (≈ 3.92 µM) |  |  |  |  |
| CC(=O)NC[C@H]1CN(c2ccc(N3CCC(Nc4ccc(Br)cc4F)CC3)c(F)c2)C(=O)O1 |  |  |  |  | 2 (≈ 3.82 µM) | 2 (≈ 3.82 µM) |  | 2 (≈ 3.82 µM) |  |  | 2 (≈ 3.82 µM) | 1 (≈ 1.91 µM) |  |  |  |  |
| CC(=O)NC[C@H]1CN(c2ccc(N3CCC(Nc4ccccc4)CC3)c(F)c2)C(=O)O1 |  | 0.125 to 0.25 (≈ 0.293 to 0.586 µM) |  |  | 1 (≈ 2.34 µM) | 1 (≈ 2.34 µM) | 0.25 to 0.5 (≈ 0.586 to 1.17 µM) | 1 (≈ 2.34 µM) |  |  | 1 (≈ 2.34 µM) | 0.5 (≈ 1.17 µM) | 0.5 to 1 (≈ 1.17 to 2.34 µM) |  | 85 |  |
| CC(=O)NC[C@H]1CN(c2ccc(N3CCOCC3)c(F)c2)C(=O)O1 [LINEZOLID] | 18 | > 16 |  | < 4.19 | 1 (≈ 2.96 µM) | 2 (≈ 5.93 µM) | 1 to 4 (≈ 2.96 to 11.9 µM) | 1 (≈ 2.96 µM) |  |  | 1 (≈ 2.96 µM) | > 16 | 1 to 2 (≈ 2.96 to 5.93 µM) |  | 75 | 1 to 4 (≈ 2.96 to 11.9 µM) |
| CC(=O)NC[C@H]1CN(c2ccc(N3CCC(Nc4ccccc4OC(F)(F)F)CC3)c(F)c2)C(=O)O1 |  |  |  |  | 2 (≈ 3.92 µM) | 2 (≈ 3.92 µM) |  | 2 (≈ 3.92 µM) |  |  | 2 (≈ 3.92 µM) | 1 (≈ 1.96 µM) |  |  |  |  |
| CC(=O)NC[C@H]1CN(c2ccc(N3CCC(N(C)c4ccc(Br)cc4)CC3)c(F)c2)C(=O)O1 |  |  |  |  | 2 (≈ 3.85 µM) | 1 (≈ 1.93 µM) |  | 2 (≈ 3.85 µM) |  |  | 2 (≈ 3.85 µM) | 1 (≈ 1.93 µM) |  |  |  |  |
| CC(=O)NC[C@H]1CN(c2ccc(N3CCC(NCc4ccccc4)CC3)c(F)c2)C(=O)O1 |  |  |  |  | 2 (≈ 4.54 µM) | 2 (≈ 4.54 µM) |  | 1 (≈ 2.27 µM) |  |  | 1 (≈ 2.27 µM) | 2 (≈ 4.54 µM) |  |  |  |  |
| CC(=O)NC[C@H]1CN(c2ccc(N3CCC(Nc4ccc(C(C)C)cc4)CC3)c(F)c2)C(=O)O1 |  |  |  |  | 2 (≈ 4.27 µM) | 0.5 (≈ 1.07 µM) |  | 2 (≈ 4.27 µM) |  |  | 1 (≈ 2.13 µM) | 0.5 (≈ 1.07 µM) |  |  |  |  |
| CC(=O)NC[C@H]1CN(c2ccc(N3CCN(/N=C/c4ccc([N+](=O)[O-])o4)CC3)c(F)c2)C(=O)O1 |  |  |  |  | 0.5 (≈ 1.05 µM) | 1 (≈ 2.11 µM) |  |  |  |  | 1 (≈ 2.11 µM) |  |  |  |  |  |
| CC(=O)NC[C@H]1CN(c2ccc(N3CCC(Nc4ccccc4Br)CC3)c(F)c2)C(=O)O1 |  |  |  |  | 2 (≈ 3.96 µM) | 2 (≈ 3.96 µM) |  | 2 (≈ 3.96 µM) |  |  | 2 (≈ 3.96 µM) | 2 (≈ 3.96 µM) |  |  |  |  |
| CC(=O)NC[C@H]1CN(c2ccc(N3CCC(Nc4ccc(F)cc4)CC3)c(F)c2)C(=O)O1 |  |  |  |  | 1 (≈ 2.25 µM) | 1 (≈ 2.25 µM) |  | 1 (≈ 2.25 µM) |  |  | 0.5 (≈ 1.12 µM) | 1 (≈ 2.25 µM) |  |  |  |  |
| CC(=O)NC[C@H]1CN(c2ccc(N3CCC(Nc4ccc(OC(F)(F)F)cc4)CC3)c(F)c2)C(=O)O1 |  |  |  |  | 1 (≈ 1.96 µM) | 0.5 (≈ 0.979 µM) |  | 1 (≈ 1.96 µM) |  |  | 1 (≈ 1.96 µM) | 0.5 (≈ 0.979 µM) |  |  |  |  |
| CC(=O)NC[C@H]1CN(c2ccc(N3CCC(Nc4ccc(Cl)cc4)CC3)c(F)c2)C(=O)O1 |  |  |  |  | 2 (≈ 4.34 µM) | 2 (≈ 4.34 µM) |  | 2 (≈ 4.34 µM) |  |  | 2 (≈ 4.34 µM) | 2 (≈ 4.34 µM) |  |  |  |  |
| CC(=O)NC[C@H]1CN(c2ccc(N3CCC(NCc4ccc(F)cc4)CC3)c(F)c2)C(=O)O1 |  |  |  |  | 1 (≈ 2.18 µM) | 2 (≈ 4.36 µM) |  | 1 (≈ 2.18 µM) |  |  | 1 (≈ 2.18 µM) | 2 (≈ 4.36 µM) |  |  |  |  |
